Laboratory results taken from PMC8536575, “Acute effects of the imidacloprid metabolite desnitro-imidacloprid on human nACh receptors relevant for neuronal signaling” (Archives of Toxicology, 2021).

Experiments:
human α7 nAChR = molecular target: T1, human α7 nAChR (Homo sapiens, UniProt P36544); experiment: Two-electrode voltage-clamp recordings, Xenopus laevis oocytes expressing human α7 nAChR; type: cell-based
T1 construct: expressed in transfected cells; host or cells: Xenopus laevis oocytes, injection of 30 ng mRNA (pCDNA3.1, T7 transcript)
T1 sequence (P36544 23-502): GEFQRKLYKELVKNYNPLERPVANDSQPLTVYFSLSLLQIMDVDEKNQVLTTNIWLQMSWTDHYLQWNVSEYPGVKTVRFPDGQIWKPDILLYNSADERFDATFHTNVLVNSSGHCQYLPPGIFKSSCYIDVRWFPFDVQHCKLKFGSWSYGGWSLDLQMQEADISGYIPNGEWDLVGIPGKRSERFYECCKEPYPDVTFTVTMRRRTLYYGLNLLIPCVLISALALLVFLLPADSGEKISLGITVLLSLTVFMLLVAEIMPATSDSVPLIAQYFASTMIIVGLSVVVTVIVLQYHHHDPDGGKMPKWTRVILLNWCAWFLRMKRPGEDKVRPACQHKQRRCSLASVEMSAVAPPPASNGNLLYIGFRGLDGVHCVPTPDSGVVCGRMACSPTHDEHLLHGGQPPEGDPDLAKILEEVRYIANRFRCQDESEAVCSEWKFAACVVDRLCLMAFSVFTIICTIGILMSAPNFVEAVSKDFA

human α4β2 (HS) nAChR = molecular target: T2, human α4β2 (HS) nAChR (Homo sapiens, UniProt P17787+P43681); experiment: Two-electrode voltage-clamp recordings, Xenopus laevis oocytes expressing human α4β2 (HS) nAChR; type: cell-based
T2 construct: expressed in transfected cells; host or cells: Xenopus laevis oocytes (EcoCyte Bioscience), mRNA injection, 3 ng α4 and 30 ng β2
T2 sequence (P43681 27-627): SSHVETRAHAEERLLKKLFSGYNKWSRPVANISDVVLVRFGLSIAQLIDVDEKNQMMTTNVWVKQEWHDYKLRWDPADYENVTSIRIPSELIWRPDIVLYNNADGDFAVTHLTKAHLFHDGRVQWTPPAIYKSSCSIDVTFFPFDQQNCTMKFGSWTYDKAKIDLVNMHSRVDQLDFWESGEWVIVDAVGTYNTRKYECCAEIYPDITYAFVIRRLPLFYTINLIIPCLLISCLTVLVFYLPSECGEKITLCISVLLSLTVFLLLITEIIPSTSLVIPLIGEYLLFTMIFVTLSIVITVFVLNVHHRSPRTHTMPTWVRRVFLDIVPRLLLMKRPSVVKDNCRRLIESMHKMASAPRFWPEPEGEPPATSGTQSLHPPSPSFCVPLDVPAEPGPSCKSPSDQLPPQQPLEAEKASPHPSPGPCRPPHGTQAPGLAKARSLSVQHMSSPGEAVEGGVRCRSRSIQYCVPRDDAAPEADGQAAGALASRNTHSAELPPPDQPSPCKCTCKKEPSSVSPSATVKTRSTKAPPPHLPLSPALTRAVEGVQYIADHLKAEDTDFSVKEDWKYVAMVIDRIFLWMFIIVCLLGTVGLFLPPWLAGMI
T2 sequence (P17787 26-502): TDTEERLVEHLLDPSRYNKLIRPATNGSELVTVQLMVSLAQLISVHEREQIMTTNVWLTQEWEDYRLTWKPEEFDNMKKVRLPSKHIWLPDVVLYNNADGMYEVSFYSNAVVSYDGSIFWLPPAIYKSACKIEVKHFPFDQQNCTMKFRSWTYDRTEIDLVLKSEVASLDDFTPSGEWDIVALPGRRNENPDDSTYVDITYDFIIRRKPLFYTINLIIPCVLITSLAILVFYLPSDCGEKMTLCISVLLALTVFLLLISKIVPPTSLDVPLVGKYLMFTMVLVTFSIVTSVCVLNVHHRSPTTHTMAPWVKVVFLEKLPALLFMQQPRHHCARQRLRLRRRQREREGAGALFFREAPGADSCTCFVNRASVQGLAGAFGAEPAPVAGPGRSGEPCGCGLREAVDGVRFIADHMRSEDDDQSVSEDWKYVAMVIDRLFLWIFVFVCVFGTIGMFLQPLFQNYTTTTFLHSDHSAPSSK

[1] = system: Xenopus laevis oocytes without additional receptor expression; experiment: Control recordings in oocytes without additional receptor expression; type: cell-based; conditions: DN-IMI 30 µM, injection of water without mRNA, n = 5
Experimental: First, we focused our experiments on the α4β2 receptor, which can assemble in two different stoichiometries. […] For control purposes, we applied DN-IMI (30 µM) to Xenopus laevis oocytes without additional receptor expression (injection of water without mRNA).

nAChRs on SH-SY5Y cells = experiment: Desensitization of the nicotine response of SH-SY5Y cells; type: cell-based, human; conditions: pretreatment 20 min, nicotine 10 µM, PNU 10 µM
Experimental: To measure acute changes in the average [Ca^2+]i of a population, SH-SY5Y cells were examined in the 96-well plate fluorescence reader FlexStation II (Molecular Devices) using the fluorophore Fura-2AM. SH-SY5Y (35,000 cells/well; 109,375 cells/cm^2) were seeded in maintenance culture medium in black 96-well plates with clear bottom (Corning, #3603). 24 h after seeding, maintenance medium was replaced with differentiation medium. […] The fluorescence was assessed at 37 °C in the fluorescence plate reader (FlexStation II; Molecular Devices) at two different excitation wavelengths, 340 nm for Ca^2+-bound Fura-2 and 380 nm for free Fura-2, and at 510 nm emission, every 3.1 s using bottom read settings. After 26–29 s of initial baseline recording of the fluorescence intensity, 10 µl of the compound dilution (10 times higher than the final concentration to the cells) was transferred automatically by the FlexStation II (“Flex mode”) to the cell plate wells (five wells per concentration) and the fluorescence intensity was monitored for another 150 s. The ratio of fluorescence intensity at 340/380 nm was determined and the mean values from the baseline recording before the addition of test compounds was set to zero. The acute change in the Ca^2+ influx after the addition of the compounds was quantified as the area under the curve (AUC) using the SoftMax Pro 4.8 software (Molecular Devices). […]

[2] = from curve-fitted concentration–response data

Question: For `NC1=NCCN1Cc1ccc(Cl)nc1` [DN-IMI, desnitro-imidacloprid], which EC50 (human α7 nAChR) is on record?
Answer: Its EC50 is 31.6 µM.

Question: And the “estimated maximum, % of the maximal response to nicotine” value (human α7 nAChR)?
Answer: Its value is ~ 81%.

Question: And the “higher potency of DN-IMI than nicotine” value (human α7 nAChR; EC25 comparison on the receptors other than α4β2 (HS): α7 and α3β4)?
Answer: Its value is “about 0.6 log-steps”.

Question: What about the “absolute EC25” value (human α7 nAChR; [2]) of the same compound?
Answer: The value was 7.6 µM.

Question: And the estimated maximum (human α7 nAChR; normalized to nicotine (1 mM))?
Answer: The estimated maximum was ~ 0.81.

Question: And the Emax (human α7 nAChR; read-out: estimated maximum, % of the maximal response to nicotine)?
Answer: The Emax was 83%.

Question: What about the EC50 (human α4β2 (HS) nAChR) of the same compound?
Answer: Its EC50 is 0.501 µM.

Question: What about the “fold lower concentrations activating α4β2 (HS) than α7 and α3β4 nAChRs” value (human α4β2 (HS) nAChR) of the same compound?
Answer: Its value is 20 fold.

Question: And the “higher potency on α4β2 (HS) nAChR than on other subtypes” value (human α4β2 (HS) nAChR; comparison of EC25 values, α4β2 (HS) vs α7 and α3β4)?
Answer: The value was > 1 log-step.

Question: What about the “absolute EC25” value (human α4β2 (HS) nAChR; [2]) of the same compound?
Answer: The value was 0.33 µM.

Question: What about the “estimated maximum amplitude, % of nicotine's” value (human α4β2 (HS) nAChR; normalized to nicotine (10 µM)) of the same compound?
Answer: Its value is 64%.

Question: And the “current responses in oocytes without receptor expression” value [1]?
Answer: Its value is “did not detect any current responses”.

Question: What about the “effect of pretreatment on the response to nicotine in SH-SY5Y” value (nAChRs on SH-SY5Y cells) of the same compound?
Answer: Its value is “reduced/abolished the response to nicotine in the submicromolar range”.
